Columns and labels:
[1] = target: HPK1 (Homo sapiens, UniProt Q92918); test: Inhibitory effect against enzyme activity of HPK1 (lantha Screen, PKC substrate); format: biochemical; settings: class symbols defined as IC50 ranges, read-out: Inhibition rate (%)
Protocol: Example 130: Assay of Inhibitory Effect of Compound Against Enzyme Activity of HPK1
The inhibitory effect of the compound against the enzyme activity of HPK1 was determined by using a lantha Screen method with PKC as a substrate. The process comprises the following specific steps: the HPK1 protein was incubated with the serially-diluted compound at 28° C. for 10 min followed by addition of fluoroescein-labeled PKC substrate and ATP to react for 90 min. After termination of the reaction, a Terbium-labeled antibody against phosphorylated PKC was added and incubated for 60 min. The energy transfer of Teribium and fluoroscein was monitored by detecting luminescence at 520 nm and 450 nm to quantify PKC as the level of phosphorylation of […]. Inhibition % and IC50 of the compound were calculated compared to the control group.

[2] = target: T1, hERG potassium channel (Homo sapiens, UniProt Q12809); test: Inhibitory effect against hERG channel activity (manual patch clamp, HEK293 cells stably expressing hERG); format: cell-based; settings: HEK293 cell line stably expressing hERG
T1 construct: expressed in transfected cells; host or cells: HEK293
Protocol: Example 131: Assay of Inhibitory Effect of Compound Against hERG Channel Activity
The HEK293 cell line stably expressed by the hERG potassium channel was adopted for detection using manual patch clamp. Firstly, the HEK293 cell line stably expressed by the hERG potassium channel was separated and laid on a cover glass before the patch clamp detection test, and the test detection was carried out after culture for 18 h. Then a capillary glass tube was drawn into a recording electrode, and the recording electrode was contacted onto the cells under an inverted microscope to form a whole-cell recording mode. After necessary compensation and recording of the membrane capacitance and series resistance, current recording was performed according to the set current stimulation protocol. After the hERG current stabilized, administration was started and the current detected in compound-free extracellular fluid for each cell served as its own control group, and multiple cells were repeatedly tested independently. The current acted for each drug concentration and the current of the blank control were standardized, then the inhibition rate corresponding to each drug concentration was calculated, and finally the half-inhibition concentration IC50 value of each compound was calculated.

HPK1, sequence (Q92918 whole entry): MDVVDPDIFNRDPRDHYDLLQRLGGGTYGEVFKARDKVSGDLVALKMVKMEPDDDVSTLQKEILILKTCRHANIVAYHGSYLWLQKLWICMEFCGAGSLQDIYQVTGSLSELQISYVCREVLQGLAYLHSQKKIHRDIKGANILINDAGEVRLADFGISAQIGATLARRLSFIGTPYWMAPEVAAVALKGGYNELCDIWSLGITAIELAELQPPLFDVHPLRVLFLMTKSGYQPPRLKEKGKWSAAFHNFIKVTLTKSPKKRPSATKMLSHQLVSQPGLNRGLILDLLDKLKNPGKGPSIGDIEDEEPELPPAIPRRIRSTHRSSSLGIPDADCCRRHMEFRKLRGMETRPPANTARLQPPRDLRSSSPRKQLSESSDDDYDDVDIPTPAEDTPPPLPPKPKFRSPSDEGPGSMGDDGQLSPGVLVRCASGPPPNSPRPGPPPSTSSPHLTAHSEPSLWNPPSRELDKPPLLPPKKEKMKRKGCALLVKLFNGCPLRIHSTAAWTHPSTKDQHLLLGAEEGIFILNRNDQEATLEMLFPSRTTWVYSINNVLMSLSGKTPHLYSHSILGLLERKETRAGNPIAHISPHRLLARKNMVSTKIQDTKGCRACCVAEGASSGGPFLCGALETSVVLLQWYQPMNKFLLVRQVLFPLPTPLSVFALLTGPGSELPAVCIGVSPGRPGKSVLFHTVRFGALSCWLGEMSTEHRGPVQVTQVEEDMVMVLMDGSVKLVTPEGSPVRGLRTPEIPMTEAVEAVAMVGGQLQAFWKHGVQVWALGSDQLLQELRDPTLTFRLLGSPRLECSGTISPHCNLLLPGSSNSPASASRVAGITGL
T1 sequence (Q12809 whole entry): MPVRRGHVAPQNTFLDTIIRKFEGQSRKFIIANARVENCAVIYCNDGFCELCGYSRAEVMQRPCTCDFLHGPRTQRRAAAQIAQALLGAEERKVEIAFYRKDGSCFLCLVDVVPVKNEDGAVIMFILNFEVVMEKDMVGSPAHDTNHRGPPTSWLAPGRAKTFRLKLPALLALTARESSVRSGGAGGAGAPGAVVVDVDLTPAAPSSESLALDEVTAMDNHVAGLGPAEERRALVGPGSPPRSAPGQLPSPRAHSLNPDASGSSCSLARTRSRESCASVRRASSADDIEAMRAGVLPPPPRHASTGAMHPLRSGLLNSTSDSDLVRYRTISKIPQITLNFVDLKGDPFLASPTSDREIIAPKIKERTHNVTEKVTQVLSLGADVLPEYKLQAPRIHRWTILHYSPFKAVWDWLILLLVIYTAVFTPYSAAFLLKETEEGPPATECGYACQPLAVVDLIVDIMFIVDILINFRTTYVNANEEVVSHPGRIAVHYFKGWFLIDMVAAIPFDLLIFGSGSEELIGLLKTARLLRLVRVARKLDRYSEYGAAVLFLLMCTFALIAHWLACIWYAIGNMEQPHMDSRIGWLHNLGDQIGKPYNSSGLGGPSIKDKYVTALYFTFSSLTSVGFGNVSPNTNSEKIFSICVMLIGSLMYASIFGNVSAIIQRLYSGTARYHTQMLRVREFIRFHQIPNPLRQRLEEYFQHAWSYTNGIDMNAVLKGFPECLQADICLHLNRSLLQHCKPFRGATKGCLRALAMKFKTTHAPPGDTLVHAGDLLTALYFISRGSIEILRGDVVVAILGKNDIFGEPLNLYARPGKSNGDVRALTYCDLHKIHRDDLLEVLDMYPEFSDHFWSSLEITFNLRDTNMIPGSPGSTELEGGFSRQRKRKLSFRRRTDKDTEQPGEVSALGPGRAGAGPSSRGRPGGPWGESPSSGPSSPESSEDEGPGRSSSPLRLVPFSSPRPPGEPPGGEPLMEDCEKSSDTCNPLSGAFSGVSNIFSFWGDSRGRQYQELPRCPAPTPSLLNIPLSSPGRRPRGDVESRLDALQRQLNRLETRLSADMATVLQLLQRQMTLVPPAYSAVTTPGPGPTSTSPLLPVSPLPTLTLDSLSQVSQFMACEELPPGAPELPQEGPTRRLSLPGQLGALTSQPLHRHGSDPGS

Cc1ccncc1-c1cc2c(-c3ccc4c(c3)OCC3CN(C)CCN43)n[nH]c2cc1C#N (stereo not shown) [Compound 43] was tested, and the IC50 [1] was at most 10 nM and the IC50 [2] was 17400 nM.

In the case of CNCc1cc(F)c(-c2cc3c(-c4ccc5c(c4)OCC4CN(C)CCN54)n[nH]c3cc2C#N)c(F)c1 (stereo not shown) [Compound 18], the IC50 [1] is reported as at most 10 nM and the IC50 [2] is reported as 11800 nM.

Molecule COc1ccc(F)c(F)c1-c1cc2c(-c3ccc4c(c3)OCC3CN(C)CCN43)n[nH]c2cc1C#N (stereo not shown) [Compound 16] has an IC50 [1] of at most 10 nM and an IC50 [2] of 23600 nM.

In the case of CN1CCN2c3ccc(-c4n[nH]c5cc(C#N)c(-c6c(F)cc(C(=O)N7CC(N(C)C)C7)cc6F)cc45)cc3OCC2C1 (stereo not shown) [Compound 35], the IC50 [1] is reported as at most 10 nM and the IC50 [2] is reported as 31800 nM.

COc1ccc(F)c(F)c1-c1cc2c(-c3ccc4c(c3)OCC3CN(C)CCN43)n[nH]c2cn1 (stereo not shown) [Compound 73] showed an IC50 [1] of 10 to 100 nM and an IC50 [2] of 41200 nM.

In the case of CN1CCN2c3ccc(-c4cnc5[nH]cc(-c6ccc(C(=O)N7CC(N(C)C)C7)cc6)c5n4)cc3OCC2C1 (stereo not shown) [Compound 112], the IC50 [1] is reported as at most 10 nM and the IC50 [2] is reported as 35600 nM.

For COc1cccc(F)c1-c1cc2c(-c3ccc4c(c3)OCC3CN(C)CCN43)n[nH]c2cc1C#N (stereo not shown) [Compound 6], the IC50 [1] was at most 10 nM and the IC50 [2] was 17800 nM.

COc1cccc(F)c1-c1ncc2[nH]cc(-c3ccc4c(c3)OCC3CN(C)CCN43)c2n1 (stereo not shown) [Compound 94] showed an IC50 [1] of 10 to 100 nM.

CNS(=O)(=O)c1cccc(-c2cc3c(-c4ccc5c(c4)OCC4CN(C)CCN54)n[nH]c3cc2C#N)c1F (stereo not shown) [Compound 14] showed an IC50 [1] of at most 10 nM.

Molecule CN1CCN2c3ccc(-c4n[nH]c5cnc(-c6cnn7ccccc67)cc45)cc3OCC2C1 (stereo not shown) [Compound 78] has an IC50 [1] of at most 10 nM.

Work on CN1CCN2c3ccc(-c4n[nH]c5cc(C#N)c(-c6c(F)ccc7c6CCCC7N)cc45)cc3OCC2C1 (stereo not shown) [Compound 38] yielded an IC50 [1] of at most 10 nM.

In the case of CN1CCN2c3ccc(-c4n[nH]c5cnc(-c6cccc(F)c6F)cc45)cc3OCC2C1 (stereo not shown) [Compound 67], the IC50 [1] is reported as 10 to 100 nM and the IC50 [2] is reported as 51200 nM.

In the case of CNCc1cc(F)c(-c2nc3c(-c4ccc5c(c4)OCC4CN(C)CCN54)c[nH]c3cc2C#N)c(F)c1 (stereo not shown) [Compound 99], the IC50 [1] is reported as at most 10 nM.

Work on COc1ccc(C#N)c(F)c1-c1cc2c(-c3ccc4c(c3)OCC3CN(C)CCN43)n[nH]c2cn1 (stereo not shown) [Compound 74] yielded an IC50 [1] of 10 to 100 nM.
